# Target: T1, BACE1 enzyme (Homo sapiens, UniProt P56817)
# T1 construct: The HEK293-9B.A1 cell line, which overexpresses the BACE1 enzyme, was derived from HEK293 cells; endogenous in cells; washed 48,000 x g pellet of cell homogenate
# Experiment: Radioligand displacement assay with a radiolabeled BACE inhibitor on HEK293-9B.A1 cell homogenate
# Assay type: binding
# Conditions: displacement of 1 nM tritiated radioligand, HEK293-9B.A1 homogenate, pH 5.0, 1.5 hr at 25° C.; read-out: Activity Rating (Activity based on IC50 values)
# From the text: There are a number of methods by which inhibitors of the BACE enzyme can be identified experimentally. The enzyme can be obtained from membrane samples from natural tissues or cultured cells or can be expressed recombinantly in a host cell by well known methods of molecular biology. The whole enzyme or a portion thereof can be expressed, for example, in bacterial, insect or mammalian cells to obtain a catalytically active enzyme species. The enzymatic activity and/or ligand binding capability of the enzyme can be assessed within these membrane samples, or the enzyme can be purified to varying extents. As an illustrative example, the nucleic acid sequence encoding the pro and catalytic domains of human BACE can be appended on the 5′ end with an untranslated and signal sequence from the gene for acetylcholinesterase, and on the 3′ end with a sequence encoding a poly-histidine tag. This cDNA can then be expressed in Drosophila melanogaster S2 cells in which the signal and pro sequences of the transcribed/translated protein are removed by cellular proteases and the catalytic domain, appended by a C-terminal poly-histidine tag, is secreted out into the cellular medium. The enzyme can then be purified from the culture medium by nickel affinity chromatography by methods well known to those trained in the art [Mallender, W. et al., “Characterization of recombinant, soluble beta-secretase from an insect cell expression system.” Mol. Pharmacol. 2001, 59: 619-626]. Similar strategies for expressing and purifying various forms of BACE in bacterial, mammalian and other cell types would be known to one skilled in the art. A preferred method for determining the potency of a test compound in binding to the BACE enzyme is by monitoring the displacement of a suitable radioligand.
# Radioligand displacement assays with a radiolabeled BACE inhibitor (WO 2004 013098, compound 3, where the methoxy group is substituted for C(^3H)3) were carried out using standard methods (Keen, M. (1999) in Receptor Binding Techniques (Walker, J. M. ed) p. 106 Humana Press, Totowa, N.J.). The HEK293-9B.A1 cell line, which overexpresses the BACE1 enzyme, was derived from HEK293 cells (Simmons, N. L. (1990) A cultured human renal epitheloid cell line responsive to vasoactive intestinal peptide. Exp. Physiol. 75:309-19.) by RAGE™ M (Harrington, J. J. et al. (2001) Creation of genome-wide protein expression libraries using random activation of gene expression. Nat. Biotechnol. 19:440-5; U.S. Pat. Nos. 6,410,266 and 6,361,972). T225 flask cultures of HEK293-9B.A1 were grown to 80% confluency in DMEM supplemented with 2 mM L-glutamine, 10 μg/ml penicillin, 10 μg/ml streptomycin, 3 μg/ml puromycin, 100 nM methotrexate, and 10% fetal bovine serum (Invitrogen, Carlsbad, Calif.), harvested, and resuspended at 2×10^8 cells per 10 ml of lysis buffer consisting of 50 mM HEPES pH 7.0 containing a protease inhibitor cocktail of AEBSF 104 μM, aprotinin 80 nM, leupeptin 2 μM, bestatin 4 μM, pepstatin A 1.5 μM, and E-64 1.4 μM (0.1% of protease inhibitor cocktail P8340, Sigma-Aldrich, St. Louis, Mo.) at 4° C. The resuspended cells were homogenized using a Polytron (Brinkman, Westbury, N.Y.) at setting 6 for 10 sec., then centrifuged at 48,000×g for 10 min. The resulting pellet was washed by repeating the resuspension, homogenization and centrifugation steps. The final pellet was resuspended in buffer at 4° C. to yield a total protein concentration of 5 mg/ml, then aliquots were frozen in liquid nitrogen for further storage at −70° C. Immediately before carrying out a binding assay, an aliquot of cell homogenate was thawed and diluted to a concentration of 100 μg/ml in assay buffer consisting of 50 mM HEPES pH 5.0 and 0.1% CHAPSO. […]
# T1 sequence (P56817 46-501): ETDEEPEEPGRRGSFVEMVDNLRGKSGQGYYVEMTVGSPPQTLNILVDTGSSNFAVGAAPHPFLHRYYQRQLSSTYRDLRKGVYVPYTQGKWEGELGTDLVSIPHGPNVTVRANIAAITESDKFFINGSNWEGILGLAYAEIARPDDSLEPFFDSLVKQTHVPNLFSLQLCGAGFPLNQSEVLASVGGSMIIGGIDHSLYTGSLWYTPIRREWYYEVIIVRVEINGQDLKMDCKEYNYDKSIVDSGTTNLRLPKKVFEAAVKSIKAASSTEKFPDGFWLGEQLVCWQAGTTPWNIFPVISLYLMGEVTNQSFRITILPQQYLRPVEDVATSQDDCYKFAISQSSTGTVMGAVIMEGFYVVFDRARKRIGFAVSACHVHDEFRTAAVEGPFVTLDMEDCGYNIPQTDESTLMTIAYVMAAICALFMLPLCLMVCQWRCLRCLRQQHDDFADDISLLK
row,SMILES,IC50 [nM]
1,"CCON=C1CC(=O)/N=C(\N)NCc2cc(Cl)c(c(Cl)c2)NC(=O)CNCC=CCOc2ccc1cc2 (single isomer, unassigned; isomer b) [Example 2, Isomer B of 4-amino-23,26-dichloro-13-oxa-3,5,18,21-tetraazatricyclo-[20.2.2.2^9,12]octacosa-1(24),4,9,11,15,22,25,27-octaene-6,8,20-trione 8-(O-ethyloxime)]",> 50
2,"CCON=C1CC(=O)N=C(N)NCc2cc(Cl)c(c(Cl)c2)NC(=O)CNCCC=CCOc2ccc1cc2 (single isomer, unassigned; isomer a) [Example 4, Isomer A of 4-amino-24,27-dichloro-13-oxa-3,5,19,22-tetraazatricyclo-[21.2.2.29,12]nonacosa-1(25),4,9,11,15,23,26,28-octaene-6,8,21-trione 8-(O-ethyloxime)]",5 to 50
3,"CCON=C1CC(=O)N=C(N)NCc2cc(Cl)c(c(Cl)c2)NC(=O)CNCCCCCCCOc2ccc1cc2 [Example 11, 4-Amino-26,29-dichloro-13-oxa-3,5,21,24-tetraazatricyclo-[23.2.2.2^9,12]hentriaconta-1(27),4,9,11,25,28,30-heptaene-6,8,23-trione 8-(O-ethyloxime)]",< 5
4,"CCON=C1CC(=O)N=C(N)NCc2cc(Cl)c(c(Cl)c2)NC(=O)CNCCCCOc2ccc1cc2 [Example 3, 4-Amino-23,26-dichloro-13-oxa-3,5,18,21-tetraazatricyclo[20.2.2.2^9,12]-octacosa-1(24),4,9,11,22,25,27-heptaene-6,8,20-trione 8-(O-ethyloxime)]",5 to 50
5,"CCON=C1CC(=O)/N=C(\N)NCc2cc(Cl)c(c(Cl)c2)NC(=O)CNCC=CCOc2ccc1cc2 (single isomer, unassigned; isomer a) [Example 1, Isomer A of 4-amino-23,26-dichloro-13-oxa-3,5,18,21-tetraazatricyclo[20.2.2.2^9,12]octacosa-1(24),4,9,11,15,22,25,27-octaene-6,8,20-trione 8-(O-ethyloxime)]",> 50
6,"CCON=C1CC(=O)N=C(N)NCc2cc(Cl)c(c(Cl)c2)NC(=O)CNCCCCC=CCOc2ccc1cc2 [Example 10, 4-Amino-26,29-dichloro-13-oxa-3,5,21,24-tetraazatricyclo-[23.2.2.2^9,12]hentriaconta-1(27),4,9,11,15,25,28,30-octaene-6,8,23-trione 8-(O-ethyloxime)]",< 5
7,"CCON=C1CC(=O)N=C(N)NCc2cc(Cl)c(c(Cl)c2)NC(=O)CNCCCC=CCOc2ccc1cc2 (single isomer, unassigned; isomer b) [Example 8, Isomer B of 4-amino-25,28-dichloro-13-oxa-3,5,20,23-tetraazatricyclo-[22.2.2.29,12]triaconta-1(26),4,9,11,15,24,27,29-octaene-6,8,22-trione 8-(O-ethyloxime)]",< 5
8,"CCON=C1CC(=O)N=C(N)NCc2cc(Cl)c(c(Cl)c2)NC(=O)CNCCCCCCOc2ccc1cc2 [Example 9, 4-Amino-25,28-dichloro-13-oxa-3,5,20,23-tetraazatricyclo[22.2.2.2^9,12]-triaconta-1(26),4,9,11,24,27,29-heptaene-6,8,22-trione 8-(O-ethyloxime)]",< 5
9,"CCON=C1CC(=O)N=C(N)NCc2cc(Cl)c(c(Cl)c2)NC(=O)CNCCCC=CCOc2ccc1cc2 (single isomer, unassigned; isomer a) [Example 7, Isomer A of 4-amino-25,28-dichloro-13-oxa-3,5,20,23-tetraazatricyclo[22.2.2.29,12]triaconta-1(26),4,9,11,15,24,27,29-octaene-6,8,22-trione 8-(O-ethyloxime)]",< 5
10,"CCON=C1CC(=O)N=C(N)NCc2cc(Cl)c(c(Cl)c2)NC(=O)CNCCC=CCOc2ccc1cc2 (single isomer, unassigned; isomer b) [Example 5, Isomer B of 4-amino-24,27-dichloro-13-oxa-3,5,19,22-tetraazatricyclo-[21.2.2.29,12]nonacosa-1(25),4,9,11,15,23,26,28-octaene-6,8,21-trione 8-(O-ethyloxime)]",5 to 50
11,CCON=C1CC(=O)N=C(N)NCc2cc(Cl)c(c(Cl)c2)NC(=O)CNCCCCCOc2ccc1cc2 [Example 6],5 to 50

# Test system: not given
# Experiment: not given
# Conditions: from C=CCCCCN(CC(=O)Nc1c(Cl)cc(CNC(=NC(=O)CC(=NOCC)c2ccc(OCC=C)cc2)NC(=O)OC(C)(C)C)cc1Cl)C(=O)OC(C)(C)C; rcm bond; Grubbs 1st generation catalyst; dichloromethane; 2.93 mM; 65.0 °C; 2.0 h
row,SMILES,"ring closure, yield of all isomers [%]"
1,CCON=C1CC(=O)N=C(NC(=O)OC(C)(C)C)NCc2cc(Cl)c(c(Cl)c2)NC(=O)CN(C(=O)OC(C)(C)C)CCCCC=CCOc2ccc1cc2,80.5

# Same assay, conditions: from C=CCCCN(CC(=O)Nc1c(Cl)cc(CNC(=NC(=O)CC(=NOCC)c2ccc(OCC=C)cc2)NC(=O)OC(C)(C)C)cc1Cl)C(=O)OC(C)(C)C; rcm bond; Grubbs 1st generation catalyst; dichloromethane; 2.62 mM; 65.0 °C; 1.5 h
row,SMILES,"ring closure, yield of all isomers [%]"
1,CCON=C1CC(=O)N=C(NC(=O)OC(C)(C)C)NCc2cc(Cl)c(c(Cl)c2)NC(=O)CN(C(=O)OC(C)(C)C)CCCC=CCOc2ccc1cc2,82.9

# Same assay, conditions: from C=CCCN(CC(=O)Nc1c(Cl)cc(CNC(=NC(=O)CC(=NOCC)c2ccc(OCC=C)cc2)NC(=O)OC(C)(C)C)cc1Cl)C(=O)OC(C)(C)C; rcm bond; Grubbs 1st generation catalyst; dichloromethane; 3.0 mM; 65.0 °C; 4.0 h
row,SMILES,"ring closure, yield of all isomers [%]"
1,CCON=C1CC(=O)N=C(NC(=O)OC(C)(C)C)NCc2cc(Cl)c(c(Cl)c2)NC(=O)CN(C(=O)OC(C)(C)C)CCC=CCOc2ccc1cc2,69.1

# Same assay, conditions: from C=CCOc1ccc(C(CC(=O)N=C(NCc2cc(Cl)c(NC(=O)CN(CC=C)C(=O)OC(C)(C)C)c(Cl)c2)NC(=O)OC(C)(C)C)=NOCC)cc1; rcm bond; Grubbs 1st generation catalyst; dichloromethane; 2.85 mM; 65.0 °C; 4.0 h
row,SMILES,"ring closure, yield of all isomers [%]"
1,CCON=C1CC(=O)N=C(NC(=O)OC(C)(C)C)NCc2cc(Cl)c(c(Cl)c2)NC(=O)CN(C(=O)OC(C)(C)C)CC=CCOc2ccc1cc2,82.8

# Source: US7678784B2, “Oxime-containing macrocyclic acyl guanidines as β-secretase inhibitors” (Bristol-Myers Squibb Company, priority 2006, dated 2010)
